Broadly, the IC50 is the concentration needed to halve the response being measured. A high value points to lower potency.

PIK3CA (human), sequence (P42336 whole entry, looked up): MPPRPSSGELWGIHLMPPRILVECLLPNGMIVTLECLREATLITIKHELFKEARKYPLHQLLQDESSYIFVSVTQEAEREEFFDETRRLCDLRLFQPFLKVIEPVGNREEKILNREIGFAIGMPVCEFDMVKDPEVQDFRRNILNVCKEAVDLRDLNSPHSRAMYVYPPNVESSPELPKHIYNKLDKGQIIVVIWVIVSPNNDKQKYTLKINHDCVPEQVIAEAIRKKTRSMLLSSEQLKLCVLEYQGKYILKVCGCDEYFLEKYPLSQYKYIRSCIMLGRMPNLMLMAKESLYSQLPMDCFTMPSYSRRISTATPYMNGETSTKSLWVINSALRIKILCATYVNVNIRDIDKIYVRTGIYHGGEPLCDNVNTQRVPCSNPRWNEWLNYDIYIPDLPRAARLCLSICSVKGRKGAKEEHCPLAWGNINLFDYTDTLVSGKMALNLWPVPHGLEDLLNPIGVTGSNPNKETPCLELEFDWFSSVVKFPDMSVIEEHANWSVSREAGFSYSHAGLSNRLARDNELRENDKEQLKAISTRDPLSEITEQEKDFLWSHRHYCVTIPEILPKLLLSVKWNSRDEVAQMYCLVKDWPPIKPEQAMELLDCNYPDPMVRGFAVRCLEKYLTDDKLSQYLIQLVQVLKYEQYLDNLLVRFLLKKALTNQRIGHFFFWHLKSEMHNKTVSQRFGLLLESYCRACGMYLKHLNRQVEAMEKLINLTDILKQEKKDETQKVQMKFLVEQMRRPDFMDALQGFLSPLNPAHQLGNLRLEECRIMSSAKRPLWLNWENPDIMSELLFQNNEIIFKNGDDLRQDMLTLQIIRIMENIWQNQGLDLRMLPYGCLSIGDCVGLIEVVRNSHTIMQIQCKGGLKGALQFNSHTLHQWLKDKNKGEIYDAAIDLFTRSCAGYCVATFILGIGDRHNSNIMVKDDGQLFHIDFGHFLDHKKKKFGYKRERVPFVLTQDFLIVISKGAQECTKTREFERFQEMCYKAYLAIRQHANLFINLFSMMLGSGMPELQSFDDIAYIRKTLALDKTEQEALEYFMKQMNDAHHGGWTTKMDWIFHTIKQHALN

The experiment concerns the target PIK3CA (human) (UniProt P42336). Put plainly: Assessment of PIK3CA Kinase Activity.
The compound `CN(Cc1cc2nc(-c3cn[nH]c3)nc(N3CCOCC3)c2s1)c1ncc(C(=O)NO)cn1` displayed a concentration for half-maximal inhibition (IC50) of 100 to 1000 nM. As for `Nc1ccc(-c2nc(N3CCOCC3)c3sc(CNc4ncc(C(=O)NO)cn4)cc3n2)cc1`, the IC50 was 100 to 1000 nM. In the case of `CC(C)(Nc1ncc(C(=O)NO)cn1)c1cc2nc(-c3cccc4[nH]ncc34)nc(N3CCOCC3)c2s1` it was 100 to 1000 nM. The result for `O=C(NO)c1ccc(NCc2cc3nc(-c4cccc5[nH]ncc45)nc(N4CCOCC4)c3s2)nc1` reads below 100 nM; that for `O=C(C=Cc1cc2nc(-c3cccc4[nH]ncc34)nc(N3CCOCC3)c2s1)NO`, 100 to 1000 nM; that for `COCCN(Cc1cc2nc(-c3cccc4[nH]ncc34)nc(N3CCOCC3)c2s1)c1ncc(C(=O)NO)cn1`, below 100 nM.

As for `CC(=O)OCCN(Cc1cc2nc(-c3cccc4[nH]ncc34)nc(N3CCOCC3)c2s1)c1ncc(C(=O)NO)cn1`, the concentration for half-maximal inhibition (IC50) is below 100 nM.

The compound `CN(Cc1cc2nc(-c3ccc(N)c(N)c3)nc(N3CCOCC3)c2s1)c1ncc(C(=O)NO)cn1` came in with a half-inhibitory concentration (IC50) of 100 to 1000 nM. For the compound `CNc1ncc(-c2nc(N3CCOCC3)c3sc(CN(C)c4ncc(C(=O)NO)cn4)cc3n2)cn1`, the 50% inhibitory concentration (IC50) was below 100 nM. The result for `O=C(CCCCNc1cc2nc(-c3cccc4[nH]ncc34)nc(N3CCOCC3)c2s1)NO` reads 100 to 1000 nM. In the case of `NC(=O)CN(Cc1cc2nc(-c3cccc4[nH]ncc34)nc(N3CCOCC3)c2s1)c1ncc(C(=O)NO)cn1` it was below 100 nM. In the case of `CN(Cc1cc2nc(-c3cnc(CN)nc3)nc(N3CCOCC3)c2s1)c1ncc(C(=O)NO)cn1` it was below 100 nM; in that of `CN(Cc1cc2nc(-c3cncnc3)nc(N3CCOCC3)c2s1)c1ncc(C(=O)NO)cn1`, below 100 nM.

Take `CN(Cc1cc2nc(-c3cccc4[nH]ncc34)nc(Nc3ccccc3)c2s1)c1ncc(C(=O)NO)cn1`: the concentration for half-maximal inhibition (IC50) is below 100 nM.

Turning to `Nc1ccc(-c2nc(N3CCOCC3)c3sc(CN4CCN(c5ncc(C(=O)NO)cn5)CC4)cc3n2)cc1`, the IC50 fell in the range of 100 to 1000 nM.

Consider `CCCCN(Cc1cc2nc(-c3cccc4[nH]ncc34)nc(N3CCOCC3)c2s1)c1ncc(C(=O)NO)cn1`, for which the 50% inhibitory concentration (IC50) lay in the range of 100 to 1000 nM. In the case of `C#CCCN(Cc1cc2nc(-c3cccc4[nH]ncc34)nc(N3CCOCC3)c2s1)c1ncc(C(=O)NO)cn1` it was below 100 nM; in that of `CN(Cc1cc2nc(-c3cnc(N)nc3)nc(N3CCOCC3)c2s1)c1ncc(C(=O)NO)cn1`, below 100 nM. `CN(Cc1cc2nc(-c3ccc(N)cc3)nc(N3CCOCC3)c2s1)c1ccc(C(=O)NO)cc1` came in with a 50% inhibitory concentration (IC50) of 100 to 1000 nM. In the case of `CCN(Cc1cc2nc(-c3cccc4[nH]ncc34)nc(N3CCOCC3)c2s1)c1ncc(C(=O)NO)cn1` it was below 100 nM. The result for `Cn1cc(CNc2cc3nc(-c4cccc5[nH]ncc45)nc(N4CCOCC4)c3s2)c2cc(C(=O)NO)ccc21` reads below 100 nM. The result for `CC(=O)Nc1ccc(-c2nc(N3CCOCC3)c3sc(CN(C)c4ncc(C(=O)NO)cn4)cc3n2)cn1` reads below 100 nM; that for `O=C(O)CN(Cc1cc2nc(-c3cccc4[nH]ncc34)nc(N3CCOCC3)c2s1)c1ncc(C(=O)NO)cn1`, below 100 nM.

For `CN(Cc1cc2nc(-c3ccc(CN)cc3)nc(N3CCOCC3)c2s1)c1ncc(C(=O)NO)cn1`, the IC50 fell in the range of 100 to 1000 nM. With `Cc1ccc(-c2nc(N3CCOCC3)c3sc(CN(C)c4ncc(C(=O)NO)cn4)cc3n2)cc1`, the IC50 was in the range of 100 to 1000 nM.

As for `CN(Cc1cc2nc(-c3cccc4[nH]ncc34)nc(N3CCOCC3)c2s1)c1ccc(C(=O)NO)cc1`, the half-maximal inhibitory concentration (IC50) was below 100 nM. The result for `O=C(NO)c1cc2nc(-c3cccc4[nH]ncc34)nc(N3CCOCC3)c2s1` reads below 100 nM; that for `O=C(NO)c1cnc(N2CCC(CNCc3cc4nc(-c5cccc6[nH]ncc56)nc(N5CCOCC5)c4s3)CC2)nc1`, 100 to 1000 nM. In the case of `Nc1ccc(-c2nc(N3CCOCC3)c3sc(CNCc4ccc(/C=C/C(=O)NO)cc4)cc3n2)cc1` it was 100 to 1000 nM. The result for `CN(C)c1ccc(-c2nc(N3CCOCC3)c3sc(CN(C)c4ncc(C(=O)NO)cn4)cc3n2)cn1` reads 100 to 1000 nM. The compound `CN(Cc1cc2nc(-c3ccc(C(F)(F)F)cc3)nc(N3CCOCC3)c2s1)c1ncc(C(=O)NO)cn1` registered a half-maximal inhibitory concentration (IC50) of 100 to 1000 nM. The result for `CN(Cc1cc2nc(-c3cccc4[nH]ncc34)nc(N3CCOCC3)c2s1)c1ccc(/C=C/C(=O)NO)cc1` reads below 100 nM; that for `O=C(CCCCCN1CCN(Cc2cc3nc(-c4cccc5[nH]ncc45)nc(N4CCOCC4)c3s2)CC1)NO`, below 100 nM; that for `CCN(Cc1cc2nc(-c3ccc(N)cc3)nc(N3CCOCC3)c2s1)c1ncc(C(=O)NO)cn1`, 100 to 1000 nM. In the case of `CC(C)CN(Cc1cc2nc(-c3cccc4[nH]ncc34)nc(N3CCOCC3)c2s1)c1ncc(C(=O)NO)cn1` it was 100 to 1000 nM; in that of `O=C(NO)c1cnc(N2CCC(CNc3cc4nc(-c5cccc6[nH]ncc56)nc(N5CCOCC5)c4s3)CC2)nc1`, below 100 nM. In the case of `CC1COCC(C)N1c1nc(-c2cccc3[nH]ncc23)nc2cc(CN(C)c3ncc(C(=O)NO)cn3)sc12` (configuration not stated) it was 100 to 1000 nM; in that of `CN(Cc1cc2nc(-c3cccc(C(N)=O)c3)nc(N3CCOCC3)c2s1)c1ncc(C(=O)NO)cn1`, 100 to 1000 nM. Take `CN(Cc1cc2nc(-c3cccc4[nH]ncc34)nc(N3CCCCC3)c2s1)c1ncc(C(=O)NO)cn1`: the IC50 lay within 100 to 1000 nM. The result for `CN(Cc1cc2nc(-c3cccc4[nH]ccc34)nc(N3CCOCC3)c2s1)c1ncc(C(=O)NO)cn1` reads 100 to 1000 nM; that for `COC(=O)CN(Cc1cc2nc(-c3cccc4[nH]ncc34)nc(N3CCOCC3)c2s1)c1ncc(C(=O)NO)cn1`, below 100 nM; that for `CN(Cc1cc2cc(-c3cccc4[nH]ncc34)nc(N3CCOCC3)c2s1)c1ncc(C(=O)NO)cn1`, 100 to 1000 nM. Turning to `O=C(CCCCCCNCc1cc2nc(-c3cccc4[nH]ncc34)nc(N3CCOCC3)c2s1)NO`, the IC50 was below 100 nM.

As for `Cc1nc(N)ncc1-c1nc(N2CCOCC2)c2sc(CN(C)c3ncc(C(=O)NO)cn3)cc2n1`, the IC50 was below 100 nM. The result for `O=C(/C=C/c1ccc(NCc2cc3nc(-c4cccc5[nH]ncc45)nc(N4CCOCC4)c3s2)cc1)NO` reads below 100 nM; that for `Cc1nc2ccc(-c3nc(N4CCOCC4)c4sc(CN(C)c5ncc(C(=O)NO)cn5)cc4n3)cc2[nH]1`, below 100 nM. For the compound `CN(Cc1cc2nc(-c3ccc(CO)cc3)nc(N3CCOCC3)c2s1)c1ncc(C(=O)NO)cn1`, the IC50 was 100 to 1000 nM. In the case of `CC(C)(C)CN(Cc1cc2nc(-c3cccc4[nH]ncc34)nc(N3CCOCC3)c2s1)c1ncc(C(=O)NO)cn1` it was 100 to 1000 nM; in that of `CN(Cc1cc2nc(-c3cnc(C(N)=O)nc3)nc(N3CCOCC3)c2s1)c1ncc(C(=O)NO)cn1`, below 100 nM. The compound `O=C(NO)c1cnc(NCc2cc3cc(-c4cccc5[nH]ncc45)nc(N4CCOCC4)c3s2)nc1` registered a concentration for half-maximal inhibition (IC50) of 100 to 1000 nM.

`CN(Cc1cc2nc(-c3ccc4[nH]ccc4c3)nc(N3CCOCC3)c2s1)c1ncc(C(=O)NO)cn1`: the half-inhibitory concentration (IC50) fell in the range of 100 to 1000 nM.

Take `O=C(NO)c1cnc(N(CCCO)Cc2cc3nc(-c4cccc5[nH]ncc45)nc(N4CCOCC4)c3s2)nc1`: the concentration for half-maximal inhibition (IC50) was below 100 nM. In the case of `CN(Cc1cc2nc(-c3cccnc3)nc(N3CCOCC3)c2s1)c1ncc(C(=O)NO)cn1` it was below 100 nM; in that of `CN(Cc1cc2nc(-c3ccc(N)nc3)nc(N3CCOCC3)c2s1)c1ncc(C(=O)NO)cn1`, below 100 nM. Turning to `CC1CN(c2nc(-c3cccc4[nH]ncc34)nc3cc(CN(C)c4ncc(C(=O)NO)cn4)sc23)CC(C)O1` (configuration not stated), the IC50 lay within 100 to 1000 nM. Consider `O=C(NO)c1ccc(NCc2cc3nc(-c4cccc5[nH]ncc45)nc(N4CCOCC4)c3s2)cc1`, for which the IC50 lay within 100 to 1000 nM. `CN(Cc1cc2nc(-c3cccc(O)c3)nc(N3CCOCC3)c2s1)c1ncc(C(=O)NO)cn1` showed an IC50 below 100 nM.

Take `CN(CCCCCCC(=O)NO)Cc1cc2nc(-c3cccc4[nH]ncc34)nc(N3CCOCC3)c2s1`: the IC50 is below 100 nM. The compound `Cc1c(CN(C)c2ncc(C(=O)NO)cn2)sc2c(N3CCOCC3)nc(-c3cccc4[nH]ncc34)nc12` came in with an IC50 of 100 to 1000 nM.

`COc1cccc(-c2nc(N3CCOCC3)c3sc(CN(C)c4ncc(C(=O)NO)cn4)cc3n2)c1` returned an IC50 of 100 to 1000 nM. `CN(CCCC(=O)NO)Cc1cc2nc(-c3cccc4[nH]ncc34)nc(N3CCOCC3)c2s1` yielded a 50% inhibitory concentration (IC50) of 100 to 1000 nM. The result for `COCc1cccc(-c2nc(N3CCOCC3)c3sc(CN(C)c4ncc(C(=O)NO)cn4)cc3n2)c1` reads 100 to 1000 nM; that for `NCCN(Cc1cc2nc(-c3cccc4[nH]ncc34)nc(N3CCOCC3)c2s1)c1ncc(C(=O)NO)cn1`, below 100 nM. `CN(Cc1cc2nc(-c3ccc4[nH]cnc4c3)nc(N3CCOCC3)c2s1)c1ncc(C(=O)NO)cn1` registered an IC50 below 100 nM. The result for `O=C(CCCCCCN1CCN(Cc2cc3nc(-c4cccc5[nH]ncc45)nc(N4CCOCC4)c3s2)CC1)NO` reads 100 to 1000 nM. The result for `CC(=O)NCCN(Cc1cc2nc(-c3cccc4[nH]ncc34)nc(N3CCOCC3)c2s1)c1ncc(C(=O)NO)cn1` reads below 100 nM; that for `CN(C)c1ncc(-c2nc(N3CCOCC3)c3sc(CN(C)c4ncc(C(=O)NO)cn4)cc3n2)cn1`, below 100 nM. The result for `CN(CC1CCN(c2ncc(C(=O)NO)cn2)CC1)c1cc2nc(-c3cccc4[nH]ncc34)nc(N3CCOCC3)c2s1` reads below 100 nM; that for `CCCN(Cc1cc2nc(-c3cccc4[nH]ncc34)nc(N3CCOCC3)c2s1)c1ncc(C(=O)NO)cn1`, below 100 nM. With `CN(C)CCN(Cc1cc2nc(-c3cccc4[nH]ncc34)nc(N3CCOCC3)c2s1)c1ncc(C(=O)NO)cn1`, the 50% inhibitory concentration (IC50) was below 100 nM. In the case of `O=C(NO)c1cnc(N2CCN(S(=O)(=O)c3cc4nc(-c5cccc6[nH]ncc56)nc(N5CCOCC5)c4s3)CC2)nc1` it was below 100 nM; in that of `O=C(C=Cc1ccc(S(=O)(=O)Nc2cc3nc(-c4cccc5[nH]ncc45)nc(N4CCOCC4)c3s2)cc1)NO`, below 100 nM; in that of `O=C(CCCNCc1cc2nc(-c3cccc4[nH]ncc34)nc(N3CCOCC3)c2s1)NO`, 100 to 1000 nM. Compound `O=C(CCCCCNc1cc2nc(-c3cccc4[nH]ncc34)nc(N3CCOCC3)c2s1)NO` had an IC50 of 100 to 1000 nM.

In turn, `O=C(C=Cc1ccc(CNCc2cc3nc(-c4cccc5[nH]ncc45)nc(N4CCOCC4)c3s2)cc1)NO` showed an IC50 of 100 to 1000 nM. In the case of `CN(Cc1cc2nc(-c3cccc4[nH]ncc34)nc(NCCO)c2s1)c1ncc(C(=O)NO)cn1` it was 100 to 1000 nM. On to `CN(Cc1cc2nc(-c3cccc(CO)c3)nc(N3CCOCC3)c2s1)c1ncc(C(=O)NO)cn1`, for which the IC50 is below 100 nM.

(Values after the Kinase Knowledgebase extract (Sharma et al. 2016).)
